The IC50 is the midpoint of a concentration-inhibition curve.

The values that follow come from US8097422B2, “Kir channel modulators” (Salk Institute for Biological Studies, priority 2007, dated 2012).

Substitutions are numbered along the chain they refer to.

Assay type in all cases: cell-based
Test [1] concerns the target T1, GIRK4* Leu252 to Tyr mutant channel (Rattus norvegicus, UniProt P48548, L252Y/S143T).
T1 construct: expressed in transfected cells; host or cells: HEK293 / HEK293T
T1 sequence (P48548 1-419 S143T/L252Y): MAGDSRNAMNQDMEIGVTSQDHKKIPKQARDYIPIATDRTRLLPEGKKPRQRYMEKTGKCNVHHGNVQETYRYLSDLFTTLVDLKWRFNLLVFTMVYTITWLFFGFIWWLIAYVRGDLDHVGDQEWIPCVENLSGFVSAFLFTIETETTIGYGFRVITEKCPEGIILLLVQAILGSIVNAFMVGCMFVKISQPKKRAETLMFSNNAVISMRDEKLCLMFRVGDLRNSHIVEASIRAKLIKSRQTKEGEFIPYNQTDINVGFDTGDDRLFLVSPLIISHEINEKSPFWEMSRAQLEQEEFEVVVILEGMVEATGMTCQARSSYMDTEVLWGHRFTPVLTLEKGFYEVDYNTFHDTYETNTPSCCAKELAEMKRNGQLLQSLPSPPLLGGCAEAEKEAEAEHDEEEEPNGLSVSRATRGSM
The test is described as follows: whole-cell patch clamp, GIRK4* L252Y mutant channel. The settings on record: for activation of GIRK4* Leu252 to Tyr mutant, percentage change from basal: n=8. The protocol:
(§1) Point mutations were introduced by Quickchange site directed mutagenesis kit (Stratagene). The GIRK2 PIP mutant was generated by overlap-PCR method. […] Mutations were confirmed by automated DNA sequencing methods. […] Cells were plated in a 12 well dish, and were transiently transfected using Lipofectamine 2000 (Invitrogen). After 12-24 hrs, cells were re-plated to 12-mm glass coverslips coated with poly-D-[…] microgram/ml). […] The cells were co-transfected with 0.04 micrograms of eYFP cDNA to identify transfected cells. 0.8 micrograms of Muscarinic Receptor 2 (M2R) was also co-transfected for experiments with Carbachol. […] Whole-cell patch clamp recordings were performed 24-72 hrs after transfection. […] Alcohols, 5 μM Carbachol, and 1 mM BaCl2 (diluted in 20K solution) were applied from outside the cell with the rapid perfusion system (Warner Instruments). […] Current-voltage relationships also were obtained from the ramp protocol. This protocol was used to measure the inwardly rectifying currents at -100 mV and to ensure stability of recording by monitoring a reversal potential and inward rectification. […] Alcohol and Carbachol modulated currents were measured by averaging two consecutive current readings upon reaching steady state, and subtracting the averaged basal current before and after the application of modulator.
(In patch-clamp work, channel activity is measured electrically.)

The target of test [2] is T2, GIRK4* Leu252 to Ala mutant channel (Rattus norvegicus, UniProt P48548, L252A/S143T).
T2 construct: expressed in transfected cells; host or cells: HEK293 / HEK293T
T2 sequence (P48548 1-419 S143T/L252A): T1 sequence (P48548 1-419 S143T/L252Y) with Y252A
Kind of test: whole-cell patch clamp, GIRK4* L252A mutant channel. The settings on record: for percent activation of GIRK4* Leu252 to Ala mutant: n=8. The protocol:
as §1

Test [3] has as its system GIRK2 PIP S148T mutant channel. The test is described as follows: whole-cell patch clamp, GIRK2 PIP S148T mutant channel. The settings on record: GIRK2 PIP S148T compared with GIRK2 PIP L257W. The protocol: as §1
Test [4] has as its target T3, GIRK4 (Rattus norvegicus, UniProt P48548).
T3 construct: expressed in transfected cells; host or cells: HEK293 / HEK293T
T3 sequence (P48548 1-419): T1 sequence (P48548 1-419 S143T/L252Y) with T143S, Y252L
Kind of test: whole-cell patch clamp, GIRK4 homo-tetramers. The settings on record: n=7. The protocol: as §1

Test [5] addresses T4, GIRK2 Y349W mutant channel (Mus musculus, UniProt P48542, Y349W).
T4 construct: expressed in transfected cells; host or cells: HEK293T
The test is described as follows: whole-cell patch clamp, GIRK2 Y349W mutant channel. The settings on record: n=10. As for the experimental part: as §1

For test [6], the target named is T5, GIRK2 PIP L257W mutant (Mus musculus, UniProt P48542, D228N/I234L/L257W/M344L/N231K).
T5 construct: expressed in transfected cells; host or cells: HEK293 / HEK293T
T5 sequence (P48542 1-425 D228N/N231K/I234L/L257W/M344L): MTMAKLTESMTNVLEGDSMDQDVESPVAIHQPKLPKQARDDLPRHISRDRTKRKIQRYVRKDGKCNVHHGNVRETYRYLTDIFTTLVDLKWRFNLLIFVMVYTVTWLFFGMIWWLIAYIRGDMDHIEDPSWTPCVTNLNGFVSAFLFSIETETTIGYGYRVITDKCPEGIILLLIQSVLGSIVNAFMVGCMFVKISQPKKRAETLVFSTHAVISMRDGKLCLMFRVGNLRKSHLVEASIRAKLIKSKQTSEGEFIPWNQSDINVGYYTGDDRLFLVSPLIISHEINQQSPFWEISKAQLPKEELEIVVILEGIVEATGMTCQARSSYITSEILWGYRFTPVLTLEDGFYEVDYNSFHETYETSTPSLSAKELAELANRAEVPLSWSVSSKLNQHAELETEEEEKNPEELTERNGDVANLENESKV
The test is described as follows: whole-cell patch clamp, GIRK2 PIP L257W mutant channel. The settings on record: for IC50: dose response, read-out: IC50 for inhibition of GIRK2 PIP L257W mutant; for inhibition of GIRK2 PIP L257W mutant channel, percentage inhibition: equimolar alcohol series (50 mM). As for the experimental part:
as §1

T4 sequence (P48542 whole entry Y349W): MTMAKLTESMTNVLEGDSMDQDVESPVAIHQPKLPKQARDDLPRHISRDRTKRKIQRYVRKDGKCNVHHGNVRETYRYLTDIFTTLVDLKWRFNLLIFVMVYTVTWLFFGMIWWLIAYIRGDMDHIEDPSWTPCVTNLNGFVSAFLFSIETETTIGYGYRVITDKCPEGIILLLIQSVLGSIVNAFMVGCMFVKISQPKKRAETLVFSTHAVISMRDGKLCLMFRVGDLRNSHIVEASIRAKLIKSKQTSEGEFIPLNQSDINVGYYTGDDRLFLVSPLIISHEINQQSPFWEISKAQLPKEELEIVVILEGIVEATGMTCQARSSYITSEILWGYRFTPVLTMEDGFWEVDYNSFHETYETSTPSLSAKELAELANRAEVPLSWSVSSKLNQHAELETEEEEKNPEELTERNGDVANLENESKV

With 1-propanol [1-PrOH], in test [1], the “activation of GIRK4* Leu252 to Tyr mutant, percentage change from basal” value is on record as 15±3%. Also, in test [2], the “percent activation of GIRK4* Leu252 to Ala mutant” value amounted to 86±8%. The “change in sensitivity to inhibition when Ser at the P-loop is mutated to Thr” value in test [3] was ~100 fold. Moreover, the “modulation of GIRK4 currents, mean percentage change from basal (negative = inhibition)” value in test [4] was 43±7%. Moreover, the “1-PrOH activated current, GIRK2 Y349W, percentage change from basal current” value in test [5] came to 256±25%. Moreover, in test [6], the half-inhibitory concentration (IC50) was ~5.1 mM and the “inhibition of GIRK2 PIP L257W mutant channel, percentage inhibition” value (from here on “inhibition … percentage inhibition”) is recorded as −92±1%.

Turning to `C[N+](C)(C)CCOC(N)=O` [Carbachol], in test [1] (5 μM Carbachol), the “Carb (G-protein mediated) activation, GIRK4* L252 Tyr” value is on record as 110±14%. Moreover, the “Carb (G-protein mediated) activation, GIRK4* L252 Ala” value in test [2] (5 μM Carbachol) worked out at 51±8%. Also, the “Carbachol activated current, GIRK2 Y349W, percentage change from basal current” value in test [5] (5 μM Carbachol) worked out at 56±5.

With 1-butanol [1-BuOH], the “modulation of GIRK4 currents, mean percentage change from basal (negative = inhibition)” value in test [4] was −70±3%. Besides, in test [6], the “inhibition … percentage inhibition” value was −99±3%.

For the compound `CCO` [EtOH, ethanol], the “activation of GIRK4* Leu252 to Tyr mutant, percentage change from basal” value in test [1] stood at 20±3%. In addition, the “modulation of GIRK4 currents, mean percentage change from basal (negative = inhibition)” value in test [4] amounted to 43±6%. Further, the “inhibition … percentage inhibition” value in test [6] is −20±2%.

Regarding `CC(O)CC(C)(C)O` (racemic) [MPD, 2-methyl-2,4-pentanediol], the “percent activation of GIRK4* Leu252 to Ala mutant” value in test [2] turned out to be 179±22%. Besides, the “change in sensitivity to inhibition when Ser at the P-loop is mutated to Thr” value in test [3] is listed as ~20 fold. Also, the “modulation of GIRK4 currents, mean percentage change from basal (negative = inhibition)” value in test [4] came to 55±8%. Moreover, in test [6], the half-inhibitory concentration (IC50) is ~7.7 mM and the “inhibition … percentage inhibition” value was −84±3%.
